# pIC50: −log10 of the molar value. Where a name gives a salt, the structure may show the parent alone.
# Biological target: T1, cGMP-PDE (Homo sapiens, UniProt O76074)
# T1 construct: cGMP-PDE was separated from other isozymes in human platelets; from tissue; host or cells: human platelets
# Assay: cGMP-phosphodiesterase (PDE) Assay (human platelets)
# Type: biochemical
# Conditions: not given
# Experimental: cGMP-phosphodiesterase (PDE) Assay
# cGMP-PDE was separated from other isozymes in human platelets by a modification of the method of Thompson et. al. (Cyclic Nucleotide Phosphodiesterase (PDE), in Methods of Enzymatic analysis, Vol 4, p127-234, 1984). In enzyme inhibition assays, the test compounds were dissolved in 10% DMSO and then diluted with assay buffer (50 mM Tris-HCl, pH 8.0, 0.1 mM dithiothreitol, 2 mM EGTA and 10 u/ml snake venom), at final concentrations ranging from 10^-10 to 10^-6 M. Assays were performed at 0.1 μM substrate ([^3 H]-cGMP) concentration, at 30° C. for 10 minutes using enzyme dilutions which gave 10-20% hydrolysis of substrate. Each assay was initiated by addition of substrate and terminated by addition of anion exchange resin (Dowex 1-X8, 25 μg/mg) followed by centrifugation for 10 minutes (3000 rpm, at 4° C.). Radioactivity of supernatant (^3 H-GMP) was assayed by liquid scintillation counting.
row,Structure (SMILES),pIC50
1,"CCCc1c(C=O)c2ccc(C(=O)NS(=O)(=O)c3ccccc3)cc2n1Cc1ccccc1Cl [22-(6), 1-(2-Chlorobenzyl)-3-formyl-N-phenylsulfonyl-2-propylindole-6-carboxamide]",> 7.00
2,"CCCc1c(C(=O)C(C)C)c2ccc(C(=O)NOC)cc2n1Cc1ccccc1Cl [24-(1), 1-(2-Chlorobenzyl)-3-isobutyryl-O-methyl-2-propylindole-6-carbohydroxamic acid]",> 7.00
3,"CCCc1c(C(=O)C(C)C)c2ccc(C(N)=O)cc2n1Cc1ccccc1C(=O)OC [25-(2), 3-Isobutyryl-(2-methoxycarbonylbenzyl)-2-propylindole-6-carboxamide]",> 7.00
4,"CCCc1c(C(=O)C(C)C)c2ccc(C(N)=O)cc2n1Cc1cccc(Cl)c1 [27-(2), 1-(3-Chlorobenzyl)-3-isobutyryl-2-propylindole-6-carboxamide]",> 7.00
5,"CCCc1c(C(=O)C(C)C)c2ccc(C(N)=O)cc2n1Cc1ccc(Cl)s1 [27-(5), 1-[(5-Chlorothien-2-yl)methyl]-3-isobutyryl-2-propylindole-6-carboxamide]",> 7.00
6,"CCCc1c(C(=O)C(C)C)c2ccc(C(N)=O)cc2n1Cc1ccccc1I [37-(3), 1-(2-Iodobenzyl)-3-isobutyryl-2-propylindole-6-carboxamide]",> 7.00
7,"CCCc1c(C(=O)C(C)C)c2ccc(C(N)=O)cc2n1Cc1ccccc1C#N [37-(6), 1-(2-Cyanobenzyl)-3-isobutyryl-2-propylindole-6-carboxamide]",> 7.00
8,"COCc1c(C(=O)C(C)C)c2ccc(C(N)=O)cc2n1Cc1ccccc1Cl [37-(14), 1-(2-Chlorobenzyl)-3-isobutyryl-2-methoxymethylindole-6-carboxamide]",> 7.00
9,"CCCc1c(C(=O)Cc2ccccc2)c2ccc(C(N)=O)cc2n1Cc1ccccc1Cl [38-(2), 1-(2-Chlorobenzyl)-3-phenylacetyl-2-propylindole-6-carboxamide]",> 7.00
10,"CCCc1c(C(=O)C=C(C)C)c2ccc(C(N)=O)cc2n1Cc1ccccc1Cl [73-(40), 1-(2-Chlorobenzyl)-3-(3-methyl-2-butenoyl)-2-propylindole-6-carboxamide]",> 7.00
11,"CCCc1c(C(=O)C(C)C)c2cc(C(N)=O)ccc2n1Cc1ccccc1Cl [75-(4), 1-(2-Chlorobenzyl)-3-isobutyryl-2-propylindole-5-carboxamide]",> 7.00
12,"CCCc1c(C(=O)CN2CCOCC2)c2ccc(C(N)=O)cc2n1Cc1ccccc1Cl [75-(10), 1-(2-Chlorobenzyl)-3-morpholinoacetyl-2-propylindole-6-carboxamide]",> 7.00
13,"CCCc1c(C(N)=O)c2ccc(C(N)=O)cc2n1Cc1ccccc1Cl [75-(15), 1-(2-Chlorobenzyl)-2-propylindole-3,6-dicarboxamide]",> 7.00
14,"Cc1c(C(=O)C(C)C)c2ccc(C(N)=O)cc2n1Cc1c(Cl)sc2ccccc12 [75-(21), 1-(2-Chlorobenzo[b]thiophen-3-ylmethyl)-3-isobutyryl-2-methylindole-6-carboxamide]",> 7.00
15,"CCCc1c(C(=O)C(C)C)c2ccc(C(N)=O)cc2n1Cc1ccc2sccc2c1 [75-(23), 1-(Benzo[b]thiophen-5-ylmethyl)-3-isobutyryl-2-propylindole-6-carboxamide]",> 7.00
16,"CCCc1c(C(=O)C(C)C)c2ccc(C(N)=O)cc2n1Cc1ccc2ccccc2c1 [75-(27), 3-Isobutyryl-2-propyl-1-(2-naphthylmethyl)indole-6-carboxamide]",> 7.00
17,"CC=Cc1c(C(=O)C(C)C)c2ccc(C(N)=O)cc2n1Cc1ccccc1Cl [75-(29), 1-(2-Chlorobenzyl)-3-isobutyryl-2-(1-propenyl)indole-6-carboxamide]",> 7.00
18,"CCC(O)c1c(C(=O)C(C)C)c2ccc(C(N)=O)cc2n1Cc1ccccc1Cl (stereo not shown) [75-(30), 1-(2-Chlorobenzyl)-2-(1-hydroxypropyl)-3-isobutyrylindole-6-carboxamide]",> 7.00
19,"CCCc1c(C(=O)C(C)C)c2ccc(C(=O)OC)cc2n1Cc1ccccc1Cl [Example 4, Methyl 1-(2-chlorobenzyl)-3-isobutyryl-2-propylindole-6-carboxylate]",> 7.00
20,"CCCc1c(C(=O)CC)c2ccc(C(N)=O)cc2n1Cc1ccccc1Cl [Example 9, 1-(2-Chlorobenzyl)-3-propionyl-2-propylindole-6-carboxamide]",> 7.00
21,"CCC(=O)c1c(CC)n(Cc2ccccc2Cl)c2cc(C(N)=O)ccc12 [Example 15, 1-(2-Chlorobenzyl) -2-ethyl-3-propionylindole-6-carboxamide]",> 7.00
22,"CCCc1c(C(=O)C(C)C)c2ccc(C(=O)NO)cc2n1Cc1ccccc1Cl [Example 23, 1-(2-chlorobenzyl)-3-isobutyryl-2-propylindole-6-carbohydroxamic acid]",> 7.00
23,"CCCc1c(C(=O)C(C)C)c2ccc(C(N)=O)cc2n1Cc1ccc(Cl)cc1 [Example 26, 1-(4-chlorobenzyl)-3-isobutyryl-2-propylindole-6-carboxamide]",> 7.00
24,"CCCc1c(C(=O)C(C)C)c2ccc(C(N)=O)cc2n1Cc1ccccn1 [Example 39, 3-isobutyryl-2-propyl-1-(2-pyridylmethyl)indole-6-carboxamide hydrochloride]",> 7.00
25,"CCCc1c(C(=O)C(C)C)c2ccc(NC=O)cc2n1Cc1ccccc1Cl [Example 58, 1-(2-chlorobenzyl)-6-formamido-3-isobutyryl-2-propylindole]",> 7.00
26,"CCCc1c(C(=O)CO)c2ccc(C(N)=O)cc2n1Cc1ccccc1Cl [Example 60, 1-(2-chlorobenzyl)-3-hydroxyacetyl-2-propylindole-6-carboxamide]",> 7.00
27,"NC(=O)c1ccc2c(C(=O)O)cn(Cc3ccccc3Cl)c2c1 [Example 63, 6-carbamoyl-1-(2-chlorobenzyl)indole-3-carboxylic acid]",> 7.00

# Same assay, conditions: 0.1 μM [3H]-cGMP, 30° C., 10 minutes; read-out: IC50
row,Structure (SMILES),pIC50
1,"CCCc1c(C#N)c2ccc(C(N)=O)cc2n1Cc1ccccc1Cl [37-(11), 1-(2-Chlorobenzyl)-3-cyano-2-propylindole-6-carboxamide]",> 7.00
2,"CCc1c(CC)n(Cc2ccccc2Cl)c2cc(C(N)=O)ccc12 [37-(17), 1-(2-Chlorobenzyl)-2,3-diethylindole-6-carboxamide]",> 7.00
3,"N#Cc1ccc2c3c(n(Cc4ccccc4Cl)c2c1)C(=O)CCC3 [67-(2), 9-(2-Chlorobenzyl)-8-oxo-5,6,7,8-tetrahydrocarbazole-2-carbonitrile]",> 7.00
4,"CCc1c(Cl)n(Cc2ccccc2Cl)c2cc(C(N)=O)ccc12 [75-(35), 2-Chloro-1-(2-chlorobenzyl)-3-ethylindole-6-carboxamide]",> 7.00
5,"CC(=O)C=Cc1cn(Cc2ccccc2Cl)c2cc(C(N)=O)ccc12 [75-(38), 1-(2-Chlorobenzyl)-3-(3-oxo-1-butenyl)indole-6-carboxamide]",> 7.00
6,"NC(=O)c1ccc2c3c(n(Cc4ccccc4Cl)c2c1)C(=O)CC3 [75-(39), 4-(2-Chlorobenzyl)-3-oxo-1,2,3,4-tetrahydrocyclopent[b]indole-6-carboxamide]",> 7.00
7,"CC(=O)c1c(CC(C)C)c2ccc(C(N)=O)cc2n1Cc1ccccc1Cl [Example 18, 2-Acetyl-1-(2-chlorobenzyl)-3-isobutylindole-6-carboxamide]",> 7.00
8,"CCC(=O)c1c(CC)c2ccc(C(N)=O)cc2n1Cc1ccccc1Cl [Example 21, 1-(2-Chlorobenzyl)-3-ethyl-2-propionylindole-6-carboxamide]",> 7.00
9,"CCc1c(C(O)C(C)C)c2ccc(C(N)=O)cc2n1Cc1ccccc1Cl (stereo not shown) [Example 69, 1-(2-Chlorobenzyl)-2-ethyl-3-(1-hydroxy-2-methylpropyl)indole-6-carboxamide]",> 7.00
10,"CCCc1c(C(C)=NO)c2ccc(C(N)=O)cc2n1Cc1ccccc1Cl [Example 70, 1-(2-chlorobenzyl)-3-(1-hydroxyiminoethyl)-2-propylindole-6-carboxamide]",> 7.00

# Test system: Vascular smooth muscle cells (vSMCs)
# Assay: vSMC Proliferation ([3H]-thymidine, PDGF-stimulated)
# Type: cell-based, male Wistar rats
# Conditions: Rattus norvegicus, PDGF 10 ng/ml stimulation
# Experimental: Vascular smooth muscle cells (vSMCs) were prepared from explants of the thoracic aorta of 10 week old male Wistar rats by a modification of the method of Ross (J. Cell Biol., 50: 172, 1971). They were cultured in DMEM containing 10% fetal calf serum, 1% penicillin G and 1% streptomycin at 37° C. in a 95% air, 5% CO2 humidified atmosphere. vSMCs were seeded in 24 well plates and cultured in the presence of 10% fetal calf serum for 3 days. Cell growth then was arrested by transfer to serum free DMEA. After 24 hours, each test compound or vehicle was added to medium for 1 hour, and then cells were stimulated by PDGF (10 ng/ml). After 24 hours of additional incubation, [^3 H]-thymidine (1 μCi/ml) was added during the final 4 hours of incubation time, and trichloracetic acid insoluble radioactivity was assayed by liquid scintillation counting.
row,Structure (SMILES),pIC50
1,"CCCc1c(C=O)c2ccc(C(=O)NS(=O)(=O)c3ccccc3)cc2n1Cc1ccccc1Cl [22-(6), 1-(2-Chlorobenzyl)-3-formyl-N-phenylsulfonyl-2-propylindole-6-carboxamide]",> 7.00
2,"CCCc1c(C(=O)C(C)C)c2ccc(C(=O)NOC)cc2n1Cc1ccccc1Cl [24-(1), 1-(2-Chlorobenzyl)-3-isobutyryl-O-methyl-2-propylindole-6-carbohydroxamic acid]",> 7.00
3,"CCCc1c(C(=O)C(C)C)c2ccc(C(N)=O)cc2n1Cc1ccc(Cl)s1 [27-(5), 1-[(5-Chlorothien-2-yl)methyl]-3-isobutyryl-2-propylindole-6-carboxamide]",> 7.00
4,"COCc1c(C(=O)C(C)C)c2ccc(C(N)=O)cc2n1Cc1ccccc1Cl [37-(14), 1-(2-Chlorobenzyl)-3-isobutyryl-2-methoxymethylindole-6-carboxamide]",> 7.00
5,"CCCc1c(C(=O)Cc2ccccc2)c2ccc(C(N)=O)cc2n1Cc1ccccc1Cl [38-(2), 1-(2-Chlorobenzyl)-3-phenylacetyl-2-propylindole-6-carboxamide]",> 7.00
6,"N#Cc1ccc2c3c(n(Cc4ccccc4Cl)c2c1)C(=O)CCC3 [67-(2), 9-(2-Chlorobenzyl)-8-oxo-5,6,7,8-tetrahydrocarbazole-2-carbonitrile]",> 7.00
7,"CC=Cc1c(C(=O)C(C)C)c2ccc(C(N)=O)cc2n1Cc1ccccc1Cl [75-(29), 1-(2-Chlorobenzyl)-3-isobutyryl-2-(1-propenyl)indole-6-carboxamide]",> 7.00
8,"CCC(O)c1c(C(=O)C(C)C)c2ccc(C(N)=O)cc2n1Cc1ccccc1Cl (stereo not shown) [75-(30), 1-(2-Chlorobenzyl)-2-(1-hydroxypropyl)-3-isobutyrylindole-6-carboxamide]",> 7.00
9,"CCCc1c(C(=O)CC)c2ccc(C(N)=O)cc2n1Cc1ccccc1Cl [Example 9, 1-(2-Chlorobenzyl)-3-propionyl-2-propylindole-6-carboxamide]",> 7.00
10,"CCC(=O)c1c(CC)n(Cc2ccccc2Cl)c2cc(C(N)=O)ccc12 [Example 15, 1-(2-Chlorobenzyl) -2-ethyl-3-propionylindole-6-carboxamide]",> 7.00
11,"CCCc1c(C(=O)C(C)C)c2ccc(C(=O)NO)cc2n1Cc1ccccc1Cl [Example 23, 1-(2-chlorobenzyl)-3-isobutyryl-2-propylindole-6-carbohydroxamic acid]",> 7.00
12,"CCCc1c(C(=O)CO)c2ccc(C(N)=O)cc2n1Cc1ccccc1Cl [Example 60, 1-(2-chlorobenzyl)-3-hydroxyacetyl-2-propylindole-6-carboxamide]",> 7.00

# — patent US6069156A, “Indole derivatives as cGMP-PDE inhibitors” (Fujisawa Pharmaceutical Co., Ltd., priority 1995, dated 2000)
